Legend:
Assay type in all cases: in vivo
[1] = system: galium (catchweed bedstraw, Galium aparine); test: Test B pre-/postemergence plant response; details: Preemergence; for Galium plant response rating: 125 g ai/ha
How it was run: (§1)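 Visual ratings on a 0–100 scale (100 = complete control) were made versus untreated controls 13–15 days after treatment in a greenhouse. Compounds in surfactant-containing non-phytotoxic solvent were applied preemergence to seeds in loam–sand blend or postemergence to 1- to 4-leaf plants (2–18 cm).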

[2] = system: nightshade (eastern black nightshade, Solanum ptycanthum); test: Test B pre-/postemergence plant response; details: Preemergence; for Nightshade plant response rating: 125 g ai/ha
How it was run: as §1

[3] = system: pigweed (Amaranthus retroflexus); test: Test B pre-/postemergence plant response
How it was run: as §1

[4] = system: sunflower (common oilseed sunflower, Helianthus annuus); test: Test B pre-/postemergence plant response; details: Preemergence; for Sunflower plant response rating: 125 g ai/ha
How it was run: as §1

wild oat (Avena fatua) = test: Test B pre-/postemergence plant response
How it was run: as §1

[5] = system: canarygrass (Phalaris minor); test: Test B postemergence plant response
How it was run: (§2)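 Visual ratings from 0 (no effect) to 100 (complete control), made against controls 13–15 days after treatment, kept in a greenhouse. Compounds were applied postemergence to potted plants at the 1- to 4-leaf stage (2–18 cm).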

[6] = system: chickweed (Stellaria media); test: Test B postemergence plant response
How it was run: as §2

[7] = system: windgrass (Apera spica-venti); test: Test B postemergence plant response
How it was run: as §2

[8] = system: winter barley (Hordeum vulgare); test: Test B postemergence plant response
How it was run: as §2

[9] = system: barnyardgrass (Echinochloa crus-galli); test: Test B flooded paddy test; details: for Plant response rating, Flood, Barnyardgrass: 250 g ai/ha, flooded paddy test, visual rating on 0 to 100 scale (0 no effect, 100 complete control) after 13 to 15 days; for Plant response rating, Barnyardgrass: Flood (flooded paddy test), 13 to 15 days
How it was run: (§3)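 Each compound is added to standing floodwater (3 cm above soil, maintained) in pots of 2-leaf-stage plants; greenhouse exposure lasts 13–15 d before visual comparison with controls on a 0–100 control scale.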

[10] = system: ducksalad (Heteranthera limosa); test: Test B flooded paddy test; details: for Plant response rating, Flood, Ducksalad: 250 g ai/ha, flooded paddy test, visual rating on 0 to 100 scale (0 no effect, 100 complete control) after 13 to 15 days; for Plant response rating, Ducksalad: Flood (flooded paddy test), 13 to 15 days
How it was run: as §3

rice (Oryza sativa) = test: Test B flooded paddy test; details: for Plant response rating, Flood, Rice: 250 g ai/ha, flooded paddy test, visual rating on 0 to 100 scale (0 no effect, 100 complete control) after 13 to 15 days; for Plant response rating, Rice: Flood (flooded paddy test), 13 to 15 days
How it was run: as §3

[11] = system: umbrella sedge (Cyperus difformis); test: Test B flooded paddy test; details: for Plant response rating, Flood, Sedge, Umbrella: 250 g ai/ha, flooded paddy test, visual rating on 0 to 100 scale (0 no effect, 100 complete control) after 13 to 15 days; for Plant response rating, Sedge, Umbrella: Flood (flooded paddy test), 13 to 15 days
How it was run: as §3

[12] = system: goosegrass (Eleusine indica); test: Test B pre-/postemergence plant response; details: Preemergence, 62 g ai/ha; scale 0 to 100, 0 no effect, 100 complete control
[13] = 31 g ai/ha, scale 0 to 100 (0 no effect, 100 complete control)
[14] = 62 g ai/ha, scale 0 to 100, 0 no effect, 100 complete control
[15] = 31 g ai/ha, postemergence, scale 0 to 100, 0 is no effect, 100 is complete control
[16] = 250 g ai/ha, Preemergence, 0 to 100 scale
[17] = Postemergence, 62 g ai/ha, scale 0 (no effect) to 100 (complete control), 13 to 15 days
[18] = Postemergence, 125 g ai/ha, visual rating after 13 to 15 days, scale 0 (no effect) to 100 (complete control)
[19] = Postemergence, 250 g ai/ha, scale 0 to 100 (0 no effect, 100 complete control)
[20] = Preemergence, 31 g ai/ha, scale 0 to 100 (0 no effect, 100 complete control)
[21] = Preemergence, 125 g ai/ha, 0 to 100 scale
[22] = 31 g ai/ha, scale of 0 to 100 where 0 is no effect and 100 is complete control
[23] = 62 g ai/ha, scale of 0 to 100 where 0 is no effect and 100 is complete control
[24] = 125 g ai/ha, scale 0 to 100, 0 is no effect, 100 is complete control

Compound: CCCn1c(-c2ccccc2)ncc(C(=O)C2=C(O)CCCC2=O)c1=O [Compound 50]
- Plant response rating, Galium ([1]; 250 g ai/ha, 0 to 100 scale): 98
- Plant response rating, Galium [1, 13]: 70
- Plant response rating, Galium [1, 14]: 95
- Galium plant response rating ([1]; 0 to 100 scale): 95
- Plant response rating, Nightshade ([2]; 250 g ai/ha, 0 to 100 scale): 100
- Plant response rating, Nightshade [2, 13]: 100
- Plant response rating, Nightshade [2, 14]: 100
- Nightshade plant response rating ([2]; 0 to 100 scale): 100
- Plant response rating, Pigweed [3, 15]: 80
- Plant response rating, Pigweed [3, 16]: 100
- Plant response rating, Pigweed [3, 17]: 98
- Plant response rating, Pigweed [3, 18]: 100
- Plant response rating, Pigweed [3, 19]: 100
- Plant response rating, Pigweed [3, 20]: 90
- Pigweed plant response rating [3, 21]: 100
- Plant response rating, Sunflower ([4]; 250 g ai/ha, 0 to 100 scale): 85
- Plant response rating, Sunflower [4, 13]: 55
- Sunflower plant response rating ([4]; 0 to 100 scale): 85
- Plant response rating, Oat, Wild (wild oat (Avena fatua); [15]): 5
- Plant response rating, Oat, Wild (wild oat (Avena fatua); [16]): 0
- Plant response rating, Oat, Wild (wild oat (Avena fatua); [17]): 5
- Plant response rating, Oat, Wild (wild oat (Avena fatua); [18]): 10
- Plant response rating, Oat, Wild (wild oat (Avena fatua); [19]): 30
- Plant response rating, Oat, Wild (wild oat (Avena fatua); [20]): 0
- Oat, Wild plant response rating (wild oat (Avena fatua); [21]): 0
- Plant response rating, Canarygrass [5, 15]: 0
- Plant response rating, Canarygrass [5, 17]: 0
- Plant response rating, Canarygrass [5, 18]: 5
- Plant response rating, Canarygrass [5, 19]: 5
- Plant response rating, Chickweed [6, 15]: 80
- Plant response rating, Chickweed [6, 17]: 80
- Plant response rating, Chickweed [6, 18]: 98
- Plant response rating, Chickweed [6, 19]: 98
- Plant response rating, Windgrass [7, 15]: 10
- Plant response rating, Windgrass [7, 17]: 50
- Plant response rating, Windgrass [7, 18]: 60
- Plant response rating, Windgrass [7, 19]: 80
- Plant response rating, Barley [8, 15]: 0
- Plant response rating, Barley [8, 17]: 0
- Plant response rating, Barley [8, 18]: 5
- Plant response rating, Barley [8, 19]: 5
- Plant response rating, Flood, Barnyardgrass [9]: 60
- Plant response rating, Barnyardgrass [9, 22]: 0
- Plant response rating, Barnyardgrass [9, 23]: 0
- Plant response rating, Barnyardgrass [9, 24]: 35
- Plant response rating, Flood, Ducksalad [10]: 85
- Plant response rating, Ducksalad [10, 22]: 70
- Plant response rating, Ducksalad [10, 23]: 75
- Plant response rating, Ducksalad [10, 24]: 85
- Plant response rating, Flood, Rice (rice (Oryza sativa)): 20
- Plant response rating, Rice (rice (Oryza sativa); [22]): 0
- Plant response rating, Rice (rice (Oryza sativa); [23]): 10
- Plant response rating, Rice (rice (Oryza sativa); [24]): 15
- Plant response rating, Flood, Sedge, Umbrella [11]: 95
- Plant response rating, Sedge, Umbrella [11, 22]: 75
- Plant response rating, Sedge, Umbrella [11, 23]: 75
- Plant response rating, Sedge, Umbrella [11, 24]: 85
- Plant response rating, Goosegrass [12]: 98

Compound: Cc1ccc(F)c(-n2c(-c3ccccc3)ncc(C(=O)C3=C(O)CCCC3=O)c2=O)c1 [Compound 51]
- Plant response rating, Galium ([1]; 250 g ai/ha, 0 to 100 scale): 95
- Plant response rating, Galium [1, 13]: 0
- Plant response rating, Galium [1, 14]: 75
- Galium plant response rating ([1]; 0 to 100 scale): 80
- Plant response rating, Nightshade ([2]; 250 g ai/ha, 0 to 100 scale): 100
- Plant response rating, Nightshade [2, 13]: 98
- Plant response rating, Nightshade [2, 14]: 98
- Nightshade plant response rating ([2]; 0 to 100 scale): 98
- Plant response rating, Pigweed [3, 15]: 85
- Plant response rating, Pigweed [3, 16]: 100
- Plant response rating, Pigweed [3, 17]: 95
- Plant response rating, Pigweed [3, 18]: 98
- Plant response rating, Pigweed [3, 19]: 100
- Plant response rating, Pigweed [3, 20]: 100
- Pigweed plant response rating [3, 21]: 100
- Plant response rating, Sunflower ([4]; 250 g ai/ha, 0 to 100 scale): 75
- Plant response rating, Sunflower [4, 13]: 20
- Sunflower plant response rating ([4]; 0 to 100 scale): 75
- Plant response rating, Oat, Wild (wild oat (Avena fatua); [15]): 60
- Plant response rating, Oat, Wild (wild oat (Avena fatua); [16]): 0
- Plant response rating, Oat, Wild (wild oat (Avena fatua); [17]): 60
- Plant response rating, Oat, Wild (wild oat (Avena fatua); [18]): 60
- Plant response rating, Oat, Wild (wild oat (Avena fatua); [19]): 90
- Plant response rating, Oat, Wild (wild oat (Avena fatua); [20]): 0
- Oat, Wild plant response rating (wild oat (Avena fatua); [21]): 0
- Plant response rating, Canarygrass [5, 15]: 60
- Plant response rating, Canarygrass [5, 17]: 60
- Plant response rating, Canarygrass [5, 18]: 60
- Plant response rating, Canarygrass [5, 19]: 98
- Plant response rating, Chickweed [6, 15]: 80
- Plant response rating, Chickweed [6, 17]: 80
- Plant response rating, Chickweed [6, 18]: 85
- Plant response rating, Chickweed [6, 19]: 95
- Plant response rating, Windgrass [7, 15]: 50
- Plant response rating, Windgrass [7, 17]: 60
- Plant response rating, Windgrass [7, 18]: 60
- Plant response rating, Windgrass [7, 19]: 85
- Plant response rating, Barley [8, 15]: 5
- Plant response rating, Barley [8, 17]: 25
- Plant response rating, Barley [8, 18]: 30
- Plant response rating, Barley [8, 19]: 50
- Plant response rating, Flood, Barnyardgrass [9]: 55
- Plant response rating, Barnyardgrass [9, 22]: 15
- Plant response rating, Barnyardgrass [9, 23]: 20
- Plant response rating, Barnyardgrass [9, 24]: 40
- Plant response rating, Flood, Ducksalad [10]: 95
- Plant response rating, Ducksalad [10, 22]: 0
- Plant response rating, Ducksalad [10, 23]: 30
- Plant response rating, Ducksalad [10, 24]: 85
- Plant response rating, Flood, Rice (rice (Oryza sativa)): 60
- Plant response rating, Rice (rice (Oryza sativa); [22]): 10
- Plant response rating, Rice (rice (Oryza sativa); [23]): 15
- Plant response rating, Rice (rice (Oryza sativa); [24]): 25
- Plant response rating, Flood, Sedge, Umbrella [11]: 90
- Plant response rating, Sedge, Umbrella [11, 22]: 30
- Plant response rating, Sedge, Umbrella [11, 23]: 40
- Plant response rating, Sedge, Umbrella [11, 24]: 85
- Plant response rating, Goosegrass [12]: 100

Reference: patent US8952024B2, “Herbicidal pyrimidone derivatives” (E I du Pont de Nemours and Company, priority 2009, dated 2015)
